What was measured:
P388/S = assay: In vivo activity against P388/S (adriamycin sensitive) leukemia, Table VII; design: species or system BDF1 mice; conditions: for P388/S % ILS / P388/S tumor-free survivors/total on day 60: at optimal dose; for P388/S optimal dose: ip, days 1, 5 and 9
Method: (§1) ^a Male BDF1 mice inoculated ip: 10^6 cells inoculum, day 0.
(§2) Drugs administered in 10% dimethyl sulfoxidesaline on days 1, 5 and 9. %
(§3) ILS = percent increase in life span. Fractions in parentheses = tumorfree
(§4) survivors/total on day 60. P388/S (adriamycin sensitive) and P388/ADR
(§5) (adriamycin resistant) tumors were evaluated in the same experiment with […]

P388/ADR = assay: In vivo activity against P388/adriamycin-resistant leukemia; design: species or system BDF1 mice; conditions: for P388/ADR optimal dose: ip, days 1, 5 and 9
Method: as §1, §2, §3, §4, §5

[1] = target: T1, NADPH cytochrome P-450 reductase (rat liver microsomes) (Rattus norvegicus, UniProt P00388); assay: Stimulation of NADPH oxidation in rat hepatic microsomal incubations; conditions: for NADPH oxid: 340 nm, 37° C., phenobarbital induced microsomes, mean ± standard error of triplicate, basal 9.11 ± 0.30; for percentage stimulation of NADPH oxidation over basal rate: (drug-stimulated rate - basal rate)/basal rate × 100
T1 sequence (P00388 1-678): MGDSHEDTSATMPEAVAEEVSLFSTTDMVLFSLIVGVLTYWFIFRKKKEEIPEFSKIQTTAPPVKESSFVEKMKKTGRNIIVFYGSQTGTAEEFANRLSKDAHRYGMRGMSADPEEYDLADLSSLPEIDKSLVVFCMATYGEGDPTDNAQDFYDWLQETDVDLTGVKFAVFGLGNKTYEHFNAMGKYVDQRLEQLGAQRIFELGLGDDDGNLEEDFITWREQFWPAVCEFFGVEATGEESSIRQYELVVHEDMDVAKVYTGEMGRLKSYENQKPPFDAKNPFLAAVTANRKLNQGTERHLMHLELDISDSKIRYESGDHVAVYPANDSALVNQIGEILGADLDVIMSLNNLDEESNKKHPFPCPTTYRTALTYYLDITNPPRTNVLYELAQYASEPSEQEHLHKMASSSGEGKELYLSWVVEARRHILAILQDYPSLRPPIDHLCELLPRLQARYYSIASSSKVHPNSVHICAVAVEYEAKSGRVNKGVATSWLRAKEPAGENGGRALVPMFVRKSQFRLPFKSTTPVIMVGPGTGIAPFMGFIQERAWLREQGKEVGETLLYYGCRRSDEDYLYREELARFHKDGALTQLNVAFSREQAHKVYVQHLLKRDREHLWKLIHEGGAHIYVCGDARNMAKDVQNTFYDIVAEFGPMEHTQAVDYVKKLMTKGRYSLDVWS

rat hepatic microsomes = assay: Stimulation of adrenochrome formation (superoxide generation) in rat hepatic microsomal incubations; conditions: for adrenochrome formation: 480 nm, 37° C., no more than 100 μM drug, basal 2.11 ± 0.11; for adrenochrome formation / percentage stimulation of adrenochrome formation over basal rate: no SOD
[2] = test system: CCRF-CEM human lymphoblastic leukemic cells; assay: In vitro cytotoxicity against CCRF-CEM cells; assay type: cell-based; conditions: 48 hr
Method: ^a Human lymphoblastic leukemic cells.
The analogues were tested for their cytotoxicity against tumor cells (time, 48 hr). […] This may be associated with the initial microsomal transformation of the "reverse" analogues to "symmetrical" analogue and/or other alternate bioactive forms (e.g., free-radicals, O2^-), followed by deactivation via formation of conjugates and facile elimination of these from the host. The "reverse" analogues show reduced toxicity in vivo and also the tritiated "reverse" 7a is metabolized in vitro.

P388 cells [3] = assay: Inhibition of RNA synthesis (2-[14C]uridine incorporation) in P388 cells; assay type: cell-based, murine
Method: (§6) Experiments for inhibition of nucleic acid synthesis in tumor cells in vitro were carried out with P388 tumor cells, details of which were reported by Sengupta et al, J. Med. Chem., 18, 1175 (1975). […] AMD-OZLs inhibit either process with equal activity and with the potency of its metabolite 7-hydroxy-AMD.
^b IC50 (RNA) = concentration of inhibitor in μM required to
cause 50% reduction (in 1 hr) in 2[^14 C]uridine incorporation into
acid precipitable material with use of P388 cells.

P388 cells [4] = assay: Inhibition of DNA synthesis (methyl-[3H]thymidine incorporation) in P388 cells; assay type: cell-based, murine; conditions: 50% reduction in 1 hr of methyl-[3H]thymidine incorporation, read-out: IC50 DNA synth
Method: as §6
^c IC50 (DNA) = concentration of inhibitor in μM required to
cause 50% reduction (in 1 hr) in methyl[^3 H]thymidine incorporation
into acid precipitable material with use of P388 cells.

[5] = test system: P388 lymphocytic leukemia; assay: In vivo antitumor activity against P388 leukemia; design: species or system BDF1 mice
Method: The analogues were tested for their antitumor activities in P388 lymphocytic leukemia in male BDF1 mice. The tumor was implanted intraperitoneally (ip) with 10^6 cells. The drugs were also administered ip once daily on days 1, 5 and 9, beginning 1 day after tumor transplantation. Analogues were tested over a range of doses, but only the optimal nontoxic doses are listed.
^a 10^6 P388 cells implanted ip on day 0 into groups of eight
BDF1 male mice. Drugs administered ip. MST (range), median survival
time in days (range of individual animal deaths); % ILS, percent increase
in life span, calculated 100(T/C - 1), where T and C are median survival
times of treated and control animals; surv, number of surviving mice/tota

B16 melanoma = assay: In vivo antitumor activity against B16 melanoma; design: species or system BDF1 mice
Method: AMD-OZL analogues 9a and 10a were about as active as AMD and 7-hydroxy-AMD. The potencies of these analogues are reduced in comparison to that of AMD; their optimal doses were higher than that of AMD.
^a 0.2 mL of 1:5 (weight/volume) brei of B16 melanoma implanted
ip on day 0 in groups of nine BDF1 mice. Drugs administered ip.
^b MST (range) median survival time in days (range of individual
^c % ILS (surv), percent increase in lifespan (survivors on day

[6] = Maximum tolerated dose (LD10) in tumor-free BDF1 male mice; assay type: in vivo
Method: (§7) These analogues were also tested in tumor-free BDF1 male mice for determination of their MTD values (Table VIII). The animals (18-22 g) were given a broad range of doses of drugs in 5% dimethyl sulfoxide-saline on days 1, 5 and 9. Drugs were administered ip and the maximum tolerated doses of agents which caused death in only 10% of the tested animals in 21 days (i.e., LD10) were recorded as MTD. […] However, the MED values of 7-hydroxy-AMD and its precursor AMD-OZL 10a are high and are seven to tenfold of the MED values of 4a and 8a. On the basis of these MED values, the therapeutic indices of 8a and 4a are 70 and 96. The therapeutic index of 2a is 13, of 10a 10, and of AMD only 4.
^c MTD (maximum tolerated dose) is the lethal dose
(milligram/kilogram) for 10% normal BDF1 male mice (18-22 g); animal
calculated from a plot of logdose vs. percent mortality.

P388 Leukemia = assay: Minimum effective dose and therapeutic index vs. P388 leukemia; assay type: in vivo; conditions: dose giving 45% increase in life span in P388 tumor bearing mice; ip days 1, 5 and 9
Method: as §7
^a Drugs administered ip once on days 1, 5 and 9 starting 1 day after
tumor implantation. Determinations were made from analysis of plotted
^b MED (minimum effective dose) is the dose (milligram/kilogram)
providing an increase in life span of 45% over control in P388 tumor

| SMILES | P388/S % ILS (P388/S) [%] | P388/S tumor-free survivors/total on day 60 (P388/S) | P388/S optimal dose (P388/S) [mg/kg] | P388/ADR % ILS (P388/ADR; at optimal dose) [%] | P388/ADR optimal dose (P388/ADR) [mg/kg] | NADPH oxid [1] | percentage stimulation of NADPH oxidation over basal rate [1] [%] | adrenochrome formation (rat hepatic microsomes) | percentage stimulation of adrenochrome formation over basal rate (rat hepatic microsomes) | also measured |
| --- | --- | --- | --- | --- | --- | --- | --- | --- | --- | --- |
| COc1cccc2c1C(=O)c1c(O)c3c(c(O)c1C2=O)C[C@@](O)(C(=O)CO)C[C@@H]3O[C@H]1C[C@H](N)[C@H](O)[C@H](C)O1 [adriamycin, reference compound] | 97 | 1/8 | 3.0 | 33 | 3.5 | – | – | – | – | – |
| CCN(CC)C(=O)c1c2nc3c(C(=O)N(CC)CC)ccc(C)c3oc-2c(C)c(=O)c1N [1b] | – | – | – | – | – | 8.9 ± 0.90 nmol min^-1 (mg of protein)^-1 | -2 | 2.13 ± 0.19 nmol min^-1 (mg of protein)^-1 | +1% | – |
| CO[C@@]12[C@H](COC(N)=O)C3=C(C(=O)C(C)=C(N)C3=O)N1C[C@@H]1N[C@@H]12 [mitomycin C, reference compound] | 136 | 1/8 | 3.0 | 400 | 3.0 | – | – | – | – | P388/ADR tumor-free survivors/total on day 60 (P388/ADR; at optimal dose): 5/8 |
| Cc1c2oc3c(C)c(O)cc(C(=O)N[C@@H]4C(=O)N[C@H](C(C)C)C(=O)N5CCC[C@H]5C(=O)N(C)CC(=O)N(C)[C@@H](C(C)C)C(=O)O[C@@H]4C)c3nc-2c(C(=O)N[C@@H]2C(=O)N[C@H](C(C)C)C(=O)N3CCC[C@H]3C(=O)N(C)CC(=O)N(C)[C@@H](C(C)C)C(=O)O[C@@H]2C)c(N)c1=O [2a, 7-hydroxyactinomycin D, reference compound] | – | – | – | – | – | 29.9 ± 1.91 nmol min^-1 (mg of protein)^-1 | 228 | 7.29 ± 0.79 nmol min^-1 (mg of protein)^-1 | 245% | in vitro (CCRF-CEM) ID50 [2]: 1 µM; IC50 (P388 cells [3]; 50% reduction in 1 hr of 2-[14C]uridine incorporation, read-out: IC50 RNA synth): 5.1 µM; IC50 DNA/IC50 RNA (P388 cells [3]; ratio): 1.00; IC50 (P388 cells [4]): 5.1 µM; surv (surviving mice/total mice at 60 days) ([5]; P388, at optimal dose): 0/8; % ILS ([5]; P388, at optimal dose, 100(T/C - 1)): 136%; MST (range) ([5]; P388, at optimal dose, control 11.0 (9-12)): 26.0 (19-39) days; optimal dose ([5]; P388, ip, days 1, 5 and 9, optimal nontoxic dose): 1200.0 μg/kg per inj; % ILS (B16 melanoma; at optimal dose): 52%; surv (survivors on day 65/total injected) (B16 melanoma; at optimal dose): 1/9; MST (range) (B16 melanoma; at optimal dose, control 29 (20-48)): 44 (39-53) days; optimal dose (B16 melanoma; ip, days 1, 5, 9): 1200 μg/kg per inj; MTD (maximum tolerated dose) ([6]; lethal dose for 10% normal BDF1 male mice, 21 days (LD10), ip days 1, 5 and 9): 3.50 milligram/kilogram; MTD as fold of the MTD of AMD ([6]; tumor-free BDF1 male mice): about 14 fold; MED (minimum effective dose) (P388 Leukemia): 0.275 milligram/kilogram; adrenochrome formation in presence of SOD (rat hepatic microsomes; SOD (superoxide dismutase) 5 μg/mL added): inhibited |

From US4680382A, “Analogues of actinomycin D” (priority 1986, dated 1987)
